Measurements: patent US7109193B2, “Tricyclic diazepines tocolytic oxytocin receptor antagonists” (Wyeth, priority 2001, dated 2006)

Molecular target: T1, human oxytocin receptor (Homo sapiens, UniProt P30559)
T1 construct: host or cells: CHO cells (pcDNA3.1 vector)
T1 sequence (P30559 1-389): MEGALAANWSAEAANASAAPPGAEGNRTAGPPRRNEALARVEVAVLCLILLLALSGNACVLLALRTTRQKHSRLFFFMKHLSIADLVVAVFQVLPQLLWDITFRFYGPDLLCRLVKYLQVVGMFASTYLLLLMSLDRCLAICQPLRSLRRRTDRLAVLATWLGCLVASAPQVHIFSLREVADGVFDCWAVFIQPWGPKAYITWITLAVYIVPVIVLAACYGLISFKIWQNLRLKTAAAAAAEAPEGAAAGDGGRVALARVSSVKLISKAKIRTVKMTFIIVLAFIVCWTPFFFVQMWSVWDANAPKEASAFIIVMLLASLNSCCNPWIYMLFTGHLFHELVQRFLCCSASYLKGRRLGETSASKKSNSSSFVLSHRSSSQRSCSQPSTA
Experiment: Oxytocin binding in Chinese Hamster Ovary cell membranes expressing human oxytocin receptors
Settings: 100 nM, CHO cell membranes, [3H]oxytocin, values without parentheses; for inhibition at 0.1 µM: read-out: OT % inhibition @ 100% nM

Row | Molecule | inhibition at 0.1 µM | OT % inhibition @ 100% nM
1 | COc1cc(C(=O)N2Cc3ccc(C(=O)N4CCC(N5CCCC5)CC4)n3Cc3ccccc32)ccc1-c1cccc2ccccc12 [Example 144, {10-[3-Methoxy-4-(1-naphthyl)benzoyl]-10,11-dihydro-5H-pyrrolo[2,1-c][1,4]benzodiazepin-3-yl}[4-(1-pyrrolidinyl)-1-piperidinyl]methanone] | 53% | –
2 | Cc1cc(C(=O)N2Cc3ccc(C(=O)NCCCn4ccnc4)n3Cc3ccccc32)ccc1-c1ccccc1C(F)(F)F [Example 135, N-[3-(1H-Imidazol-1-yl)propyl]-10-{[2-methyl-2′-(trifluoromethyl)[1,1′-biphenyl]-4-yl]carbonyl}-10,11-dihydro-5H-pyrrolo[2,1-c][1,4]benzodiazepine-3-carboxamide] | 24% | –
3 | COc1ccccc1-c1ccc(C(=O)N2Cc3ccc(C(=O)N4CCC(N5CCCC5)CC4)n3Cc3ccccc32)cc1OC [Example 145, {10-[(2,2′-Dimethoxy[1,1′-biphenyl]4-yl)carbonyl]-10,11-dihydro-5H-pyrrolo[2,1-c][1,4]benzodiazepin-3-yl}[4-(1-pyrrolidinyl)-l-piperidinyl]methanone] | – | 53%
4 | COc1ccccc1-c1ccc(C(=O)N2Cc3ccc(C(=O)NCCN4CCCCC4)n3Cc3ccccc32)cc1 [Example 152, 10-[(2′-Methoxy[1,1′-biphenyl]-4-yl)carbonyl]-N-[2-(1-piperidinyl)ethyl]-10,11-dihydro-5H-pyrrolo[2,1-c][1,4]benzodiazepine-3-carboxamide] | 63% | –
5 | Cc1ccccc1-c1ccc(C(=O)N2Cc3ccc(C(=O)NCCCn4ccnc4)n3Cc3ccccc32)cc1C [Example 124, 10-[(2,2′-Dimethyl[1,1′-biphenyl]-4-yl)carbonyl]-N-[3-(1H-imidazol-1-yl)propyl]-10,11-dihydro-5H-pyrrolo[2,1-c][1,4]benzodiazepine-3-carboxamide] | 60% | –
6 | COc1cc(C(=O)N2Cc3ccc(C(=O)N4CC[C@@H](N(C)C)C4)n3Cc3ccccc32)ccc1-n1c(C)ccc1C [Example 322, [(3R)-3-(Dimethylamino)pyrrolidinyl]{10-[4-(2,5-dimethyl-1H-pyrrol-1-yl)-3-methoxybenzoyl]-10,11-dihydro-5H-pyrrolo[2,1-c][1,4]benzodiazepin-3-yl}methanone] | – | 66%
7 | COc1ccccc1-c1ccc(C(=O)N2Cc3ccc(C(=O)N4CCC(N5CCCC5)CC4)n3Cc3ccccc32)cc1 [Example 140, {10-[(2′-Methoxy[1,1′-biphenyl]-4-yl)carbonyl]-10,11-dihydro-5H-pyrrolo[2,1-c][1,4]benzodiazepin-3-yl}[4-(1-pyrrolidinyl)-1-piperidinyl]methanone] | 87% | –
8 | O=C(c1ccc(-c2cccc3ccccc23)cc1Cl)N1Cc2ccc(C(=O)N3CCC[C@H]3CN3CCCC3)n2Cc2ccccc21 [Example 261, {10-[2-Chloro-4-(1-naphthyl)benzoyl]-10,11-dihydro-5H-pyrrolo[2,1-c][1,4]benzodiazepin-3-yl}[(2S)-2-(1-pyrrolidinylmethyl)pyrrolidinyl]methanone] | – | 52%
9 | COc1ccccc1-c1ccc(C(=O)N2Cc3ccc(C(=O)NCCCn4ccnc4)n3Cc3ccccc32)cc1 [Example 126, N-[3-(1H-Imidazol-1-yl)propyl]-10-[(2′-methoxy[1,1′-biphenyl]-4-yl)carbonyl]-10,11-dihydro-5H-pyrrolo[2,1-c][1,4]benzodiazepine-3-carboxamide] | 43% | –
10 | COc1cc(C(=O)N2Cc3ccc(C(=O)N4CCC(N5CCCC5)CC4)n3Cc3ccccc32)ccc1-c1ccccc1C [Example 142, {10-[(2-Methoxy-2′-methyl[1,1′-biphenyl]-4-yl)carbonyl]-10,11-dihydro-5H-pyrrolo[2,1-c][1,4]benzodiazepin-3-yl}[4-(1-pyrrolidinyl)-1-piperidinyl]methanone] | 83% | –
11 | COc1cccc(-c2cc(OC)c(C(=O)N3Cc4ccc(C(=O)N5CC[C@@H](N(C)C)C5)n4Cc4ccccc43)cc2Cl)c1 [Example 275, {10-[(6-Chloro-3,3′-dimethoxy[1,1′-biphenyl]-4-yl)carbonyl]-10,11-dihydro-5H-pyrrolo[2,1-c][1,4]benzodiazepin-3-yl}[(3R)-3-(dimethylamino)pyrrolidinyl]methanone] | – | 89%
12 | COC(=O)c1ccc2c(c1)N(C(=O)c1ccc(-c3ccccc3C(F)(F)F)c(C)c1)Cc1cccn1C2 [Example 26, Methyl 10-{[2-methyl-2′-trifluoromethyl-[1,1′-biphenyl]-4-yl]carbonyl}-10,11-dihydro-5H-pyrrolo[2,1-c][1.4]benzodiazepine-8-carboxylate] | – | 17%
13 | COc1cc2c(cc1OC)N(C(=O)c1ccc(-c3ccccc3C(F)(F)F)c(C)c1)Cc1ccc(C(=O)N3CCC(=O)CC3)n1C2 [Example 14, 7,8-Dimethoxy-10-{[2-methyl-2′-(trifluoromethyl)-[1,1′-biphenyl]-4-yl]carbonyl}-[(10,11-dihydro-5H-pyrrolo[2,1-c][1,4]benzodiazepin-3-yl)carbonyl]-4-piperidinone] | – | 9%
14 | Cc1cc(C(=O)N2Cc3ccc(C(=O)N4CCC(N5CCCCC5)CC4)n3Cc3ccccc32)ccc1-c1ccccc1C(F)(F)F [Example 122, {10-[(2-Methyl-2′-(trifluoromethyl) -[1,1′-biphenyl]-4-yl)carbonyl]-10,11-dihydro-5H -pyrrolo[2,1-c][1,4]benzodiazepin-3-yl}[4-(1-piperidinyl)-1-piperidinyl]methanone] | 77% | –
15 | COc1cc(C(=O)N2Cc3ccc(C(=O)N4CCC(N5CCCCC5)CC4)n3Cc3ccccc32)ccc1-c1ccccc1C [Example 116, {10-[(2-Methoxy-2′-methyl[1,1′-biphenyl]-4-yl)carbonyl]-10,11-dihydro-5H-pyrrolo[2,1-c][1,4]benzodiazepin-3-yl}[4-(1-piperidinyl)-1-piperidinyl]methanone] | 84% | –
16 | COc1cc(C(=O)N2Cc3ccc(C(=O)NCCCn4ccnc4)n3Cc3ccccc32)ccc1-c1ccccc1C [Example 128, N-[3-(1H-Imidazol-1-yl)propyl]-10-[(2-methoxy-2′-methyl[1,1′-biphenyl]-4-yl)carbonyl]-10,11-dihydro-5H-pyrrolo[2,1-c][1,4]benzodiazepine-3-carboxamide] | 43% | –
17 | {10-[(2,2′-Dimethoxy[1,1′-biphenyl]-4-yl)carbonyl]-10,11-dihydro-5H-pyrrolo[2,1-c][1,4]benzodiazepin-3-yl}(4-isopropyl-1-piperazinyl)methanone [Example 244] | – | 68%
18 | COc1ccccc1-c1ccc(C(=O)N2Cc3ccc(C(=O)N4CCC(N5CCCCC5)CC4)n3Cc3ccccc32)cc1OC [Example 119, {10-[(2,2′-Dimethoxy-[1,1′-biphenyl]-4-yl)carbonyl]-10,11-dihydro-5H-pyrrolo[2,1-c][1,4]benzodiazepin-3-yl}[4-(1-piperidinyl)-1-piperidinyl]methanone] | 58% | –
19 | COc1cc(C(=O)N2Cc3ccc(C(=O)N4CCC(N5CCCCC5)CC4)n3Cc3ccccc32)ccc1-c1cccc2ccccc12 [Example 118, {10-[3-Methoxy-4-(1-naphthyl)-benzoyl]-10,11-dihydro-5H-pyrrolo[2,1-c][1,4]benzodiazepin-3-yl}[4-(1-piperidinyl)-1-piperidinyl]methanone] | 54% | –
